Consider 14 molecules from US20040110775A1, “Cyclin dependent kinase inhibiting purine derivatives” (priority 2001, published 2004).

Like-named read-outs stand apart in the source and are kept apart here.

In data set [1] the target is p34 cdc2(CDK1)/cyclinB. Put plainly: CDK assay: histone H1 phosphorylation with [32P]ATP by cdc2/cyclinB kinase. Format: biochemical, starfish (Marthasterias glacialis). As to conditions: read-out: IC50 ± SD CDK1. The procedure: Assays are available for testing the inhibitory activity of the compounds of interest against a range of CDK/cyclin complexes, including CDK1/cyclin A, CDK1/cyclin B, CDK1/cyclin F, CDK2/cyclin A, CDK2/cyclin E, CDK4/cyclin D, CDK5/35 and CDK6/cyclin D3. […]
(§1) By way of example, however, a typical protocol is summarised below.
Buffer C (containing 6 mM β-glycerophosphate, 30 mM nitrophenyl phosphate, 25 mM MOPS pH 7.0, 5 mM EGTA, 15 mM MgCl2, […] and 0.1 mM sodium orthovanadate) is made up as follows:
Affinity purified p34 cdc2(CDK1)/cyclinB from M-phase starfish (Marthasterias glacialis) in 20% glycerol is stored at −80° C. in chest freezer
Histone H1 (type III-S (Sigma) 4° C.) 5 mg/ml in buffer C.
[^32P]ATP 75 mM: Make up using (multiples of) the following proportions:
DMSO cannot exceed 1% in the assay mixture. Inhibitors are added at 1/10 final assay volume and 10× final strength. DMSO stocks must therefore be diluted to 10× final desired concentration in ≦10% DMSO, ≧90% buffer C.
All reagents (except DMSO stocks) should be kept on ice until assay initiated.
Start reaction in each tube at 30 second intervals b)y adding
5 ml [^32P]ATP vortexing and placing in rack in waterbath at 30° C.
Terminate reaction after 10 min at 30 second intervals in tubes in same order by removing […] reaction mix and spotting onto appropriately labelled filter, allowing to dry for 20-30 seconds and transferring to stirring 1% phosphoric acid.
Blank incubation is performed as above but without histone (add […] buffer C instead) Washing blank is […] ATP added directly to filter.
Wash filters 5-6 times 5 min each
Dry the filters on paper towel
Count in mini scintillation vials with 5 ml scintillant.
NB. The assay can be simplified by making up stock reaction mix as follows:
(1 part cdc2/cyclinB, 16 parts buffer C, 5 parts histone H1)×Number of assay tubes+1 and add […] to each assay tube containing […] buffer C±inhibitor.
It is still necessary, however, to make up assay blank (i.e. without histone) separately.

The conditions of data set [2]: disclosed in WO 99/02162; cited from earlier work.
Data set [3] relates to CDK1(cdc2)/cyclin B complexes. To be noted: disclosed in WO 99/02162; cited from earlier work.
In data set [4] the target is CDK2 (Homo sapiens, UniProt P24941). Nature of the data set: Inhibition of CDK2 (CDK inhibition assay). In kind it is biochemical. To be noted: read-out: IC50 ± SD CDK2.
Excerpt: Assays are available for testing the inhibitory activity of the compounds of interest against a range of CDK/cyclin complexes, including CDK1/cyclin A, CDK1/cyclin B, CDK1/cyclin F, CDK2/cyclin A, CDK2/cyclin E, CDK4/cyclin D, CDK5/35 and CDK6/cyclin D3.
Apart from reference compounds, the compounds listed are accompanied by an NU reference or identification code number.
as §1

In data set [5] the target is CDK4 (Homo sapiens, UniProt P11802). To be noted: cited from earlier work.
Chain of CDK4 (P11802 whole entry, species assumed): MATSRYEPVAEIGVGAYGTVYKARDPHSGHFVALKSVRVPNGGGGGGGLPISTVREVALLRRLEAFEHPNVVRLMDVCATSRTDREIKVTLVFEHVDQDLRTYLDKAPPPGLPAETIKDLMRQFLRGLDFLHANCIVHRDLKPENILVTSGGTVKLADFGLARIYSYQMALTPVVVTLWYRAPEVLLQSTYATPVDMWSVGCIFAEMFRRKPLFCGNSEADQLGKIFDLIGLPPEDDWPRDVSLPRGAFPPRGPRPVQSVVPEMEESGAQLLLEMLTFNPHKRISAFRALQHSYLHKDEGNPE
Chain of CDK4 (P24385 whole entry partner, species assumed): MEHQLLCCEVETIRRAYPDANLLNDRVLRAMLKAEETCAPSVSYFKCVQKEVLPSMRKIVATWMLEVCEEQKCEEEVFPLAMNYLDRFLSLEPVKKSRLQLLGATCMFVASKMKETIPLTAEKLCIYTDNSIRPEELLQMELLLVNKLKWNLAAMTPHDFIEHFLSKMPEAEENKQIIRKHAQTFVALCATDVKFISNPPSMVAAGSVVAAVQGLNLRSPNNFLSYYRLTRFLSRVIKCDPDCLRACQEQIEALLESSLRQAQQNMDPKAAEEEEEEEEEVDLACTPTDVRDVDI
In data set [6] the target is CDK6 (Homo sapiens, UniProt Q00534). To be noted: cited from earlier work.
Chain of CDK6 (Q00534 whole entry, species assumed): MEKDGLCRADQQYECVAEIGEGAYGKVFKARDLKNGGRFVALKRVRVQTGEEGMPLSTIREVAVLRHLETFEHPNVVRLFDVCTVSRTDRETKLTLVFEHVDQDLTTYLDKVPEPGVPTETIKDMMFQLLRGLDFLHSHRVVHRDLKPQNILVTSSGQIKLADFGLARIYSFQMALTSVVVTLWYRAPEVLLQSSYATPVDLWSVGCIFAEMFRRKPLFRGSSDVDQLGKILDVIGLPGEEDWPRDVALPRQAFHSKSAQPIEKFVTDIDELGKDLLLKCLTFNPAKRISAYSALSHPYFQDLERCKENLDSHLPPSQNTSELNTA
Chain of CDK6 (P30281 whole entry partner, species assumed): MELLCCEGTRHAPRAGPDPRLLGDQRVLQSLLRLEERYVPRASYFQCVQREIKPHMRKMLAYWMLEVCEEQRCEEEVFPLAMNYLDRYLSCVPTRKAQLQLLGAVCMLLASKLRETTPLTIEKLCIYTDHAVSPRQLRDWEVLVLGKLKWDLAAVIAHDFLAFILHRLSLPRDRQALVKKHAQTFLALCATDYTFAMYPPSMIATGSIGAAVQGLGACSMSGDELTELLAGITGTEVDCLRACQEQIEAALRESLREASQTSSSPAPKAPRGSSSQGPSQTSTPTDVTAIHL
Data set [7] has as its system many common kinases other than CDK's. To be noted: cited from earlier work.

Consider `Nc1nc(OCC2CCCCC2)c2nc[nH]c2n1` [NU2058, 2-Amino-O^6-cyclohexylmethylpurine], for which the 50% inhibitory concentration (IC50) in data set [1] (values given in μM) worked out at 7 ± 0.7 µM. In addition, in data set [2], the cytotoxicity result is reported as “cytotoxic”. Also, the “inhibitory activity against CDK1(cdc2)/cyclin B complexes” value in data set [3] is reported as “very high inhibitory activity, comparable to that of olomoucine”.

Turning to `CC(O)CNS(=O)(=O)c1ccc(Nc2nc(OCC3CCCCC3)c3nc[nH]c3n2)cc1` (stereo not drawn) [NU6146, 4-(6-Cyclohexylmethoxy-9H-purin-2-ylamino)-N-(2-hydroxypropyl)benzenesulfonamide], the results for the IC50 in data set [1] (values in nM) and in data set [4] (values in nM) were 0.014 ± 0.007 µM and 5 ± 1 nM, respectively.

In the case of `O=S(=O)(Nc1ccccc1)c1ccc(Nc2nc(OCC3CCCCC3)c3nc[nH]c3n2)cc1` [NU6152, 4-(6-Cyclohexylmethoxy-9H-purin-2-ylamino)-N-phenyl-benzenesulfonamide], the values for the IC50 in data set [1] (values given in μM) and in data set [4] (values given in μM) were 0.4 ± 0.1 µM and 200 ± 20 nM, respectively.

For the molecule `O=S(=O)(NCC(O)CO)c1ccc(Nc2nc(OCC3CCCCC3)c3nc[nH]c3n2)cc1` (stereo not drawn) [NU6153, 4-(6-Cyclohexylmethoxy-9H-purin-2-ylamino)-N-(2,3-dihydroxypropyl)benzenesulfonamide], the IC50 in data set [1] (values in nM) is 0.007 ± 0.001 µM; in data set [4] (values in nM) it was 5 ± 2 nM.

For the molecule `O=S(=O)(Nc1ccccn1)c1ccc(Nc2nc(OCC3CCCCC3)c3nc[nH]c3n2)cc1` [NU6154, 4-(6-Cyclohexylmethoxy-9H-purin-2-ylamino)-(N-pyridin-2-yl)benzenesulfonamide], the IC50 in data set [1] (values in nM) stood at 0.02 ± 0.006 µM; in data set [4] (values in nM) it was 27 ± 2 nM.

For `CC1CCCCC1COc1nc(Nc2ccc(S(N)(=O)=O)cc2)nc2[nH]cnc12` (stereo not drawn) [NU6158, 4-[6-(2-Methyl-cyclohexylmethoxy)-9H-purin-2-ylamino]benzenesulfonamide], the half-maximal inhibitory concentration (IC50) in data set [1] (values in nM) was determined as 0.006 ± 0.001 µM; in data set [4] (values in nM), 4 ± 0.3 nM.

Take `Cc1cc(NS(=O)(=O)c2ccc(Nc3nc(OCC4CCCCC4)c4nc[nH]c4n3)cc2)nc(C)n1` [NU6160, 4-(6-Cyclohexylmethoxy-9H-purin-2-ylamino)-N-(2,6dimethylpyrimidin-4-yl)-benzenesulfonamide]: the IC50 stood at 0.028 ± 0.002 µM in data set [1] (values in nM) and 33 ± 6 nM in data set [4] (values in nM).

Turning to `NS(=O)(=O)c1ccc(Nc2nc(OCC3CC=CCC3)c3nc[nH]c3n2)cc1` (stereo not drawn) [NU6162, 4-[6-(Cyclohex-3-enylmethoxy)-9H-purin-2ylamino]-benzenesulfonamide], the results for the IC50 in data set [1] (values in nM) and in data set [4] (values in nM) were 0.021 ± 0.004 µM and 10 ± 1 nM, respectively.

For `O=S(=O)(NCC(F)(F)F)c1ccc(Nc2nc(OCC3CCCCC3)c3nc[nH]c3n2)cc1` [NU6163, 4-(6-Cyclohexylmethoxy-9H-purin-2-ylamino)-N-(2,2,2-trifluoroethyl)-benzenesulfonamide], the IC50 in data set [1] (values in nM) amounted to 0.066 ± 0.005 µM; in data set [4] (values in nM), 51 ± 16 nM.

Take `NC(=O)Cc1ccc(Nc2nc(OCC3CCCCC3)c3nc[nH]c3n2)cc1` [NU6164, 2-[4-(6-Cyclohexylmethoxy-9H-purin-2-ylamino)-phenyl]acetamide]: the values for the IC50 in data set [1] (values in nM) and in data set [4] (values in nM) were 0.136 ± 0.022 µM and 132 ± 20 nM, respectively.

For `NS(=O)(=O)c1ccc(Nc2nc(OCC3CCCC3)c3nc[nH]c3n2)cc1` [NU6166, 4-[6-Cyclopentylmethoxy-9H-purin-2-ylamino)-benzenesulfonamide], the half-maximal inhibitory concentration (IC50) in data set [1] (values in nM) came out at 0.014 ± 0.003 µM; in data set [4] (values in nM), 7 ± 1 nM.

For `C[C@H](O)CNS(=O)(=O)c1ccc(Nc2nc(OCC3CCCCC3)c3nc[nH]c3n2)cc1` [NU6167, 4-(6-Cyclohexylmethoxy-9H-purin-2-ylamino)-N-(2-hydroxypropyl)benzenesulfonamide], the IC50 was 0.009 ± 0.0002 µM in data set [1] (values in nM) and 6 ± 1 nM in data set [4] (values in nM).

`Cn1cnc2c(NCc3ccccc3)nc(NCCO)nc21` [Olomoucine, 2-(2-hydroxyethylamino)-6-benzylamino-9-methyl-purine]: the “activity against CDK4” value in data set [5] is listed as “neither has been found to be active”. Moreover, the “activity against CDK6” value in data set [6] is reported as “neither has been found to be active”. The “inhibitory activity in relation to many common kinases other than CDK's” value in data set [7] is “total lack of inhibitory activity”.

On to `CC[C@H](CO)Nc1nc(NCc2ccccc2)c2ncn(C(C)C)c2n1` [roscovitine, 6-(benzylamino)-2(R)-[{1-(hydroxy-methyl)propyl}amino]-9-isopropylpurine], for which, in data set [5], the “activity against CDK4” value is recorded as “neither has been found to be active”. Moreover, in data set [6], the “activity against CDK6” value is listed as “neither has been found to be active”.

The IC50 is the concentration that inhibits the measured activity by half.
